In patent US20210139902A1, “RNAI TARGET GENE THAT IS HIGHLY LETHAL TO APHIDS AND USE THEREOF” (CAS Center For Excellence in Molecular Plant Sciences, priority 2018, published 2021):

System: green peach aphid
Experiment: Field test of green peach aphid: dsRNA spray compared with imidacloprid
Type: in vivo, Myzus persicae
Settings: dsRNA 300 ng/μl in water, 300 μl per plant, imidacloprid 10,000 times solution
Excerpt: Control effect (%)=(1−CK0×PT1/CK1×PT0)×100
wherein PT0: the number of insects before drug administration in the treatment area; PT1: the number of insects after drug administration in the treatment area; • CK0: the number of insects before drug administration in the control area; CK1: the number of insects after drug administration in the control area.
the dropping rate of insect population (%)=[(number of insects before drug administration−number of insects after drug administration)/number of insects before drug administration]×100
1. Radish seedlings of 12-15 days, inoculated with 100 insects, stabilized for 1 day, sprayed with dsRNA the next day.
2. The concentration of dsRNA used for spraying was 300 ng/μl. The synthesized dsRNA was dissolved in water and sprayed 300 μl per plant.
3. The concentration of imidacloprid was 10,000 times solution (Germany Bayer Emerald 70% imidacloprid 3 g, water dispersible granules), sprayed 300 μl per plant.
4. The experiment method: spray treatment, 4 replicates for each treatment.

With `O=[N+]([O-])NC1=NCCN1Cc1ccc(Cl)nc1` [Imidacloprid, imidacloprid] the “Field test of green peach aphid: Control effect, 1 d” value (1 d) was 70.96 ± 4.25 Cc %, the “Field test of green peach aphid: the dropping rate of insect population, 1 d” value (1 d, radish seedlings, 100 insects) was 37.33 ± 9.65 Bb % and the “Field test of green peach aphid: Control effect, 3 d” value (3 d) was 93.78 ± 3.14 Cb %. The “Field test of green peach aphid: the dropping rate of insect population, 3 d” value (3 d, radish seedlings, 100 insects) was 75.83 ± 15.25 Bb %, the “Field test of green peach aphid: Control effect, 5 d” value (5 d) was 97.37 ± 1.88 Bb % and the “Field test of green peach aphid: the dropping rate of insect population, 5 d” value (5 d, radish seedlings, 100 insects) was 84.35 ± 9.60 Bb %.
